Reference: patent US11618747B2, “LXR modulators with bicyclic core moiety” (OrsoBio, Inc., priority 2018, dated 2023)

Key:
[1] = biological target: T1, ligand-binding domain (LBD) of LXRα (Homo sapiens, UniProt Q13133); assay: LXR Gal4 reporter transient transfection assay (LBD-M2H Gal4α); type: cell-based; details: HEK293 cells, LXRα LBD; read-out: LBD-M2H Gal4α (EC50 range)
T1 construct: expressed in transfected cells; host or cells: HEK293
T1 sequence (Q13133 155-447): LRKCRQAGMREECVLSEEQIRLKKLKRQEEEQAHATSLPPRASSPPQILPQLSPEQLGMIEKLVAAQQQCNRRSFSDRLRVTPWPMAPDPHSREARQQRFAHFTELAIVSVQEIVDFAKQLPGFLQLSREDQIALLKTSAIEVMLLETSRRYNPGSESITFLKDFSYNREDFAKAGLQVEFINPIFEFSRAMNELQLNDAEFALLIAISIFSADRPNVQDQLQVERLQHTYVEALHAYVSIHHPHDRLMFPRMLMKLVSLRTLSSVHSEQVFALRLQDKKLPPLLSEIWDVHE
Experimental: The tested compounds were usually dissolved, tested and stored as 20 mM stock solutions in DMSO. Since sulfonyl acetic acid derivatives tend to decarboxylate under these conditions, these stock solutions were prepared, tested and stored as 20 mM DMSO stock solutions containing 100 mM trifluoroacetic Acid (5 equivalents). Sulfonyl acetic acid derivatives are shelf stable as solid at rt for long time as reported by Griesbrecht et al. (Synlett 2010:374) or Faucher et al. (J. Med. Chem. 2004; 47:18).
LXR Gal4 Reporter Transient Transfection Assays
LXRα and LXRβ activity status was determined via detection of interaction with coactivator and corepressor proteins in mammalian two-hybrid experiments (M2H). For this, via transient transfection the full length (FL) proteins of LXRα (amino acids 1-447; NP005684; SEQ ID NO:1) or LXRβ-(amino acids 1-461; NP009052; SEQ ID NO:2) or the ligand-binding domains (LBD) of LXRα (amino acids 155-447 SEQ ID NO:3) or LXRβ (amino acids 156-461; SEQ ID NO:4) were expressed from pCMV-AD (Stratagene) as fusions to the transcriptional activation domain of NFkB. As cofactors, domains of either the steroid receptor coactivator 1 (SRC1; amino acids 552-887; SEQ ID NO:5) or of the corepressor NCoR (amino acids 1906-2312; NP006302; SEQ ID NO:6) were expressed as fusions to the DNA binding domain of the yeast transcription factor GAL4 (from pCMV-BD; Stratagene). Interaction was monitored via activation of a coexpressed Firefly Luciferase Reporter gene under control of a promoter containing repetitive GAL4 response elements (vector pFRLuc; Stratagene). Transfection efficiency was controlled via cotransfection of constitutively active pRL-CMV Renila reniformis luciferase reporter (Promega). HEK293 cells were grown in minimum essential medium (MEM) with 2 mM L-glutamine and Earle's balanced salt solution supplemented with 8.3% fetal bovine serum, 0.1 mM non-essential amino acids, 1 mM sodium pyruvate, at 37° C. in 5% CO2. 3.5×10^4 cells/well were plated in 96-well cell culture plates in growth medium supplemented with 8.3% fetal bovine serum for 16-20 h to ˜90% confluency. For transfection, medium was taken off and LXR and cofactor expressing plasmids as well as the reporter plasmids are added in 30 μL OPTIMEM/well including polyethylene-imine (PEI) as vehicle. Typical amounts of plasmids transfected/well: pCMV-AD-LXR (5 ng), pCMV-BD-cofactor (5 ng), pFR-Luc (100 ng), pRL-CMV (0.5 ng). Compound stocks were prepared in DMSO, prediluted in MEM to a total volume of 120 μL, and added 4 h after addition of the transfection mixture (final vehicle concentration not exceeding 0.2%). Cells were incubated for additional 16 h, lysed for 10 min in 1× Passive Lysis Buffer (Promega) and Firefly and Renilla luciferase activities were measured sequentially in the same cell extract using buffers containing D-luciferine and coelenterazine, respectively. Measurements of luminescence were done in a BMG-luminometer.

[2] = biological target: T2, ligand-binding domain (LBD) of LXRβ (Homo sapiens, UniProt P55055, DUP175-175); assay: LXR Gal4 reporter transient transfection assay (LBD-M2H Gal4β); type: cell-based; details: HEK293 cells, LXRβ LBD; read-out: LBD-M2H Gal4β (EC50 range)
T2 construct: LXRβ (amino acids 156-461); expressed in transfected cells; host or cells: HEK293
T2 sequence (P55055 with tags, fused parts or gaps DUP175-175 limits assumed): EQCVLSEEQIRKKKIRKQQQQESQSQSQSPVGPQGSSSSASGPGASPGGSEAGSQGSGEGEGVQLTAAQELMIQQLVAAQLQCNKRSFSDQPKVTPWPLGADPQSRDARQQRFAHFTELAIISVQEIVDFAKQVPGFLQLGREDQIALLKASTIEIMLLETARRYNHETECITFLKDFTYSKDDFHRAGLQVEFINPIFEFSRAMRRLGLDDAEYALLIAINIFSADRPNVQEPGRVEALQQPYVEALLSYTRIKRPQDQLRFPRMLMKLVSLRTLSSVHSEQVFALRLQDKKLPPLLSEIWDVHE
How it was run: (§1)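 HEK293 cells were transiently co-transfected with NFkB activation-domain fusions of LXR (full length or LBD) and GAL4 DNA-binding-domain fusions of SRC1 (aa 552-887) or NCoR (aa 1906-2312), plus a GAL4-response-element Firefly luciferase reporter and a Renilla control. Compounds were added 4 h post-transfection, cells incubated 16 h, then dual luciferase read.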

full length (FL) LXRα = biological target: T3, full length (FL) LXRα (Homo sapiens, UniProt Q13133); assay: LXR Gal4 reporter transient transfection assay (FL-M2H Gal4α); type: cell-based; details: HEK293 cells, full length LXRα; read-out: FL-M2H Gal4α (EC50 range)
T3 construct: the full length (FL) proteins of LXRα (amino acids 1-447); NP005684; expressed in transfected cells; host or cells: HEK293
T3 sequence (Q13133 1-447): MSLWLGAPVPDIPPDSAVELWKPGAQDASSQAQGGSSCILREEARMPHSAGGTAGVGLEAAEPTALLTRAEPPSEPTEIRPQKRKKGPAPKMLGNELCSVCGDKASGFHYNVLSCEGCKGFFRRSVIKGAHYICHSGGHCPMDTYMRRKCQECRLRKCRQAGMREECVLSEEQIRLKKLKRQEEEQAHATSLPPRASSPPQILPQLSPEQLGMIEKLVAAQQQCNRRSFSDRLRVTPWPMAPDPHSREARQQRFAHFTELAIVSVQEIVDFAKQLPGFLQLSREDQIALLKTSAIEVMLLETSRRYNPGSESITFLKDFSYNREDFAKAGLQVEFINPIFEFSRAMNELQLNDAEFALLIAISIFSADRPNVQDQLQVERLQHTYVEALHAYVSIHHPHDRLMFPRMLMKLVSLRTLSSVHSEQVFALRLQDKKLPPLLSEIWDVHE
How it was run: as §1

full length (FL) LXRβ = biological target: T4, full length (FL) LXRβ (Homo sapiens, UniProt P55055, DUP175-175); assay: LXR Gal4 reporter transient transfection assay (FL-M2H Gal4β); type: cell-based; details: HEK293 cells, full length LXRβ; read-out: FL-M2H Gal4β (EC50 range)
T4 construct: the full length (FL) proteins of LXRα (amino acids 1-447); NP005684; NP009052; expressed in transfected cells; host or cells: HEK293
T4 sequence (P55055 with tags, fused parts or gaps DUP175-175): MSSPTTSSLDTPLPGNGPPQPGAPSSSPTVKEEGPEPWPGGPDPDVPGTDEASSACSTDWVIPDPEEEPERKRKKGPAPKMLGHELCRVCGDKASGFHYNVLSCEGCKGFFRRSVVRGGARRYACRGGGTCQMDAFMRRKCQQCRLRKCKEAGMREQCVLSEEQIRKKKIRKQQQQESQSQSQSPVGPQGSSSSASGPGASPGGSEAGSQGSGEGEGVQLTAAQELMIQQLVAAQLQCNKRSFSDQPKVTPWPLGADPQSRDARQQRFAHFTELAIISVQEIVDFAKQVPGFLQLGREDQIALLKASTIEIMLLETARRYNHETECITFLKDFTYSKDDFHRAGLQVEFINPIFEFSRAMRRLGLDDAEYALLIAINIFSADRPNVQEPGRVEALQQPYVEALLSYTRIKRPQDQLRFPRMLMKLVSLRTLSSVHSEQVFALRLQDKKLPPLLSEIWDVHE
How it was run: as §1

[3] = Pharmacokinetics in mice after single oral dosing (blood/plasma and liver exposure); type: in vivo, mice (C57/bl6/J)
Experimental: The pharmacokinetics of the compounds was assessed in mice after single dosing and oral administrations. Blood/plasma and liver exposure was measured via LC-MS.
The study design was as follows:
Animals: C57/bl6/J (Janvier) males
Diet: standard rodent chow
Animal handling: animals were withdrawn from food at least 12 h before administration
Design: single dose oral administration, n=3 animals per group
Sacrifice: at stated time point (4, 12 or 24 h) after administration
Bioanalytics: LC-MS of liver and blood/plasma samples

[4] = biological target: T5, LXRβ ligand-binding domain (Homo sapiens, UniProt P55055, DUP175-175); assay: TR-FRETβ activity assay (NCoA3 coactivator peptide recruitment); type: biochemical; details: TR-FRET, 1 μM 24(S)-25-epoxycholesterol prestimulation; read-out: FRETβ (EC50 range)
T5 construct: amino acids 156-461; NP009052; made in house; host or cells: E. coli
T5 sequence (P55055 with tags, fused parts or gaps DUP175-175 limits assumed): T2 sequence (P55055 with tags, fused parts or gaps DUP175-175 limits assumed)
How it was run: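 GST-tagged human LXRβ LBD (aa 156-461, E. coli) at 76 nM with 400 nM biotinylated NCoA3 peptide in Tris/HCl pH 6.8, 240 mM KCl, BSA, 0.002% Triton-X-100, plus 1 μM 24(S)-25-epoxycholesterol as prestimulating agonist. Compounds at 50 μM down to 0.002 μM, 1 h at 4 °C. Coactivator recruitment by TR-FRET (Tb cryptate/XL665, 615/665 nm), triplicates.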

[5] = 20 mg/kg single oral dose, time point 4 h

| Structure (SMILES) | EC50 [1] | EC50 [2] | EC50 (full length (FL) LXRα) | EC50 (full length (FL) LXRβ) | blood/plasma exposure [3, 5] | liver exposure [3, 5] | liver/blood ratio [3, 5] | EC50 [4] | blood/plasma exposure (below LLOQ, LLOQ value not given) [3, 5] | oral bioavailability (in words) ([3]; oral administration) |
| --- | --- | --- | --- | --- | --- | --- | --- | --- | --- | --- |
| N#Cc1sccc1-c1c(-c2cccc(C3CC3C(=O)O)c2)n(S(=O)(=O)c2ccc(Cl)cc2)c2ccc(F)cc12 (centres unmarked) [3/24] | < 100 nM | < 100 nM | < 100 nM | < 100 nM | D (D: <100 nM) | C (C: 1 μM to ≤3 μM) | D (D: >30) |  |  |  |
| N#Cc1sccc1-c1c(-c2cccc(C3CC3C(=O)O)c2)n(S(=O)(=O)c2ccc(Cl)cc2)c2ccccc12 (centres unmarked) [30/4] | 100 to 1000 nM | < 100 nM |  |  | C (C: 100 nM to <300 nM) | C (C: 1 μM to ≤3 μM) | C (C: 10 to ≤30) | 1000 to 10000 nM |  |  |
| N#Cc1sccc1-c1c(-c2cccc(N3CC(C(=O)O)C3)c2)n(S(=O)(=O)c2ccc(Cl)cc2)c2ccccc12 [30/7] | < 100 nM | < 100 nM |  |  | D (D: <100 nM) | B (B: 300 nM to ≤1 μM) | D (D: >30) | 100 to 1000 nM |  |  |
| Cc1ccc(S(=O)(=O)n2c(-c3cccc(C4CC4C(=O)O)c3)c(-c3ccc(F)cc3C#N)c3ccccc32)cc1 (centres unmarked) [30/15] | 100 to 1000 nM | 100 to 1000 nM |  |  |  |  |  | 1000 to 10000 nM |  |  |
| CS(=O)(=O)NC(=O)C1CC1c1cccc(-c2c(-c3ccsc3C#N)c3ccccc3n2S(=O)(=O)c2ccc(Cl)cc2)c1 (centres unmarked) [32/1] | 100 to 1000 nM | < 100 nM |  |  |  |  |  | 100 to 1000 nM |  |  |
| Cc1ccc(S(=O)(=O)n2c(-c3cccc(-c4ccc(CN5CCN(C)CC5)cc4)c3)c(-c3ccsc3C#N)c3cc(F)ccc32)cc1 [Example 8, 3-(5-Fluoro-2-(4′-((4-methylpiperazin-1-yl)methyl)-[1,1′-biphenyl]-3-yl)-1-tosyl-1H-indol-3-yl)thiophene-2-carbonitrile] |  |  |  | < 100 nM | B (B: 300 nM to ≤1 μM) | D (D: >3 μM) | B (B: 3 to ≤10) | 100 to 1000 nM |  |  |
| NC(=O)c1sccc1-c1c(-c2cccs2)n(S(=O)(=O)c2ccc(Cl)cc2)c2ccccc12 [Example 22] | 100 to 1000 nM | 100 to 1000 nM |  |  |  |  |  | 1000 to 10000 nM |  |  |
| N#Cc1sccc1-c1c(-c2cccs2)n(S(=O)(=O)C2CCCCC2)c2ccccc12 [Example 24, 3-(1-(Cyclohexylsulfonyl)-2-(thiophen-2-yl)-1H-indol-3-yl)thiophene-2-carbonitrile] | 100 to 1000 nM | < 100 nM |  |  |  |  |  | 1000 to 10000 nM |  |  |
| N#Cc1sccc1-c1c(-c2ccccc2)n(S(=O)(=O)c2ccc(Cl)cc2)c2ccccc12 [Example 26, 3-(1-((4-Chlorophenyl)sulfonyl)-2-phenyl-1H-indol-3-yl)thiophene-2-carbonitrile] | < 100 nM | < 100 nM |  |  |  |  |  | 100 to 1000 nM |  |  |
| N#Cc1sccc1-c1c(-c2cccc(OCCC(=O)O)n2)n(S(=O)(=O)c2ccc(Cl)cc2)c2ccccc12 [Example 31, 3-((6-(1-((4-Chlorophenyl)sulfonyl)-3-(2-cyanothiophen-3-yl)-1H-indol-2-yl)pyridin-2-yl)oxy)propanoic Acid] | 100 to 1000 nM | 100 to 1000 nM |  |  |  |  |  | 1000 to 10000 nM |  |  |
| CCOC(=O)c1ccc(CN(Cc2ccc(-c3cccc(S(C)(=O)=O)c3)cc2)S(=O)(=O)c2c(C)cc(C)cc2C)o1 [SR9238, reference compound] |  |  |  |  |  |  |  |  | LLOQ | not orally bioavailable |
